Like-named read-outs stand apart in the source and are kept apart here. Where a SMILES comes first, the peptide text is derived from it. [ ]: non-standard residue; d: D form. Aib = CC(C)(N)C(=O)O
Columns and labels:
PTHR1_6E = molecular target: T1, PTHR1_6E (Homo sapiens, UniProt Q03431); assay: cAMP response (GloSensor luminescence), HEK293 stably expressing PTHR1_6E; type: cell-based; details: peak GloSensor luminescence; mean ± SD, ≥3 independent experiments; read-out: EC50, cAMP induction
T1 sequence (Q03431 106-593 limits assumed): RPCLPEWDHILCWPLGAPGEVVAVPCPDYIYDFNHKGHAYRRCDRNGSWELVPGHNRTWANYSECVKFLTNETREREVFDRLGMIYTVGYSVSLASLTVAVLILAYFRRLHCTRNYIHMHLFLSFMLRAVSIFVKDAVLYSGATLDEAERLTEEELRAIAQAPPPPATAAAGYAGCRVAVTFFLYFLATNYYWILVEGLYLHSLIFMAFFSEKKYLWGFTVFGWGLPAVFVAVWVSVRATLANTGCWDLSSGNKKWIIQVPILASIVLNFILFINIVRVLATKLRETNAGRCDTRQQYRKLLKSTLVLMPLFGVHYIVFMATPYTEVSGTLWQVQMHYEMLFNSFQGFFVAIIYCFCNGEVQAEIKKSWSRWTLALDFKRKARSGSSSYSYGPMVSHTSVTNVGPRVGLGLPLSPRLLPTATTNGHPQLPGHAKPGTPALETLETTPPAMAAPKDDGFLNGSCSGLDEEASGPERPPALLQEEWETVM
Method: (§1) A HEK293 cell line stably expressing β-Arrestin2-YFP (GBR24) was constructed similarly. PTHR1_6E was produced using the Q5 Site-directed mutagenesis kit (NEB) and used to prepare a stably transfected HEK293-derived cell line. Annotated sequence data for all PTHR1 constructs are found in Supplementary Fig. 19. Aligned sequences of VHHs used in this study are shown in Supplementary Fig. 20.
(§2) These assays were performed as previously described. […] Confluent monolayers of cells were pre-incubated with CO2 independent medium containing D-luciferin (0.5 mM) at 37 °C until a stable baseline level of luminescence was established (20 min). Varying concentrations of ligands were then added, and the time course of luminescence response was recorded using BioTek plate reader.
(§3) Data were processed using Microsoft Excel and GraphPad Prism 6. Data from cAMP dose–response assays were analyzed using a sigmoidal dose–response model with variable slope. Data sets were statistically compared by using Student’s t test (two-tailed) assuming unequal variances for the two sets.

hPTHR1 = molecular target: T2, hPTHR1 (Homo sapiens, UniProt Q03431); assay: cAMP response (GloSensor luminescence), HEK293 stably expressing human PTHR1 (GP2.3); type: cell-based; details: peak GloSensor luminescence 12–16 min after ligand; mean ± SD, ≥3 independent experiments; highest conc. 100 nM conjugates, 10,000 nM peptides; read-out: EC50, cAMP induction
T2 construct: expressed in transfected cells; host or cells: HEK293 (clone GP2.3) with GloSensor cAMP reporter
T2 sequence (Q03431 27-593): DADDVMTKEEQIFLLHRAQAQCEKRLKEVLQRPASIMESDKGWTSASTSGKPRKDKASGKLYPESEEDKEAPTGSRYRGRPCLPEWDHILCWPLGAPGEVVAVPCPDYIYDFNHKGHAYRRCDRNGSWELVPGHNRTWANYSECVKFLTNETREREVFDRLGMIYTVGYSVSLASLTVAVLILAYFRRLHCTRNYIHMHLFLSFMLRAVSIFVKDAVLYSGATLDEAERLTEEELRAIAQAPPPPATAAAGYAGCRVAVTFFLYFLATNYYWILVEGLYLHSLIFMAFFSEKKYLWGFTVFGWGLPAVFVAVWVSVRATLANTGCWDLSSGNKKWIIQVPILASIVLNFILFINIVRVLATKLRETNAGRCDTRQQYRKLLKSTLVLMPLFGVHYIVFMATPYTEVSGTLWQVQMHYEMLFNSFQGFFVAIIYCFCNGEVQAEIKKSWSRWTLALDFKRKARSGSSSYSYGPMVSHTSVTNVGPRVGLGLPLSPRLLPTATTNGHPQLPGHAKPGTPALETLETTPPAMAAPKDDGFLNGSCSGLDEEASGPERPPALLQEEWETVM
Method: as §1, §2, §3

PTHR1YFPΔECD [1] = molecular target: T3, PTHR1YFPΔECD (Homo sapiens, UniProt Q03431); assay: cAMP response (GloSensor luminescence), HEK293 stably expressing PTHR1YFPΔECD (GD5Y); type: cell-based; details: peak GloSensor luminescence; mean ± SD, ≥3 independent experiments; read-out: EC50, cAMP induction
T3 construct: expressed in transfected cells; host or cells: HEK293 (clone GD5Y) with GloSensor cAMP reporter
T3 sequence (Q03431 with tags, fused parts or gaps limits assumed): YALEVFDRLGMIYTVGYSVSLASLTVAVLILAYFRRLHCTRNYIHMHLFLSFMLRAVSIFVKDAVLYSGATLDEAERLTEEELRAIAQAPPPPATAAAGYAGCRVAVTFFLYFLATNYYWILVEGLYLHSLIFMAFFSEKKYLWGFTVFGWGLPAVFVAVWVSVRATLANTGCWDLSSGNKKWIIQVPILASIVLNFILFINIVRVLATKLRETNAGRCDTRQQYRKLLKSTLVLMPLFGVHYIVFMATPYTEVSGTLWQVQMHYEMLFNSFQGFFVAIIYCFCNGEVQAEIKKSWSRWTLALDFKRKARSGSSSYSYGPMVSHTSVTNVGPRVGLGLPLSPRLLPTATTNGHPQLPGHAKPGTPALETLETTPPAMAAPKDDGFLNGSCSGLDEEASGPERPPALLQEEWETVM
Method: as §1, §2, §3

PTHR1GFP [2] = molecular target: T4, PTHR1GFP (Homo sapiens, UniProt Q03431); assay: cAMP response (GloSensor luminescence), HEK293 stably expressing PTHR1GFP (GPG10); type: cell-based
T4 sequence (Q03431 27-593): T2 sequence (Q03431 27-593)
Method: (§4) These assays were performed as previously described. Briefly, HEK-293-derived cell lines that stably express the Glosensor cAMP reporter (Promega Corp.)[30] and PTHR1, a PTHR1 variant, or PTHR2 were seeded into white sided 96-well plates (50,000 cells/well) and grown to confluency. Confluent monolayers of cells were pre-incubated with CO2 independent medium containing D-luciferin (0.5 mM) at 37 °C until a stable baseline level of luminescence was established (20 min). Varying concentrations of ligands were then added, and the time course of luminescence response was recorded using BioTek plate reader. The maximal luminescence response (observed 12–16 min after ligand addition) was used to construct dose-response data sets (Table 1, Supplementary Fig. 6).
as §3
Supplementary Figure 1. […]
GFP variant known as pHluorin2 engrafted into the receptor(ref. 19, main text). c) HEK293 cells stably expressing PTHR1-GFP were treated with varied doses of the indicated peptides or conjugates and activation was assessed by measuring luminescence from a cAMP-activated luciferase variant. Values listed represent EC50 values (mean ± SD). Each value comes from ≥ 3 independent experiments. Further details, including the number of replicates for each measurement and the normalized maximal responses induced, are reported in Supplementary Table 1. […]
than 5% of the maximal response induced for that cell line.
Peptide or conjugate PTHR1GFP

hPTHR2 = molecular target: T5, hPTHR2 (Homo sapiens, UniProt P49190); assay: cAMP response (GloSensor luminescence), HEK293 stably expressing hPTHR2; type: cell-based; details: peak GloSensor luminescence; mean ± SD, n = 3-4; read-out: EC50, cAMP induction
T5 construct: expressed in transfected cells
Method: as §4, §3

PTHR1YFPΔECD [3] = molecular target: T3, PTHR1YFPΔECD; assay: Flow cytometry binding of VHH-Alexafluor647 to HEK293 expressing PTHR1YFPΔECD
Method: (§5) Suspensions of cells in PBS were stained for 1 h on ice in the presence of indicated concentrations of VHH probes functionalized with Alexafluor647. Cells were pelleted by centrifugation and washed with PBS prior to analysis by flow cytometry (BD Accuri C6). To select intact cells gating was performed on forward scatter/side scatter profiles for analysis (see Supplementary Fig. 4 for an example of the gating strategy). Data were analyzed using FlowJo version 7.6. The median fluorescent intensity (MFI) of stained cells was used to generate VHH binding dose response curves (Supplementary Fig. 4).
Supplementary Figure 4. Assessment of VHH binding to PTHR1 variants by flow cytometry. Cells dislodged from tissue culture plates using trypsinization were incubated with varied concentrations of VHHs sortagged with AlexaFluor647 on ice for 1 h. Cells were centrifuged, washed, and analyzed by flow cytometry via gating of intact cells (live gate) based on forward scatter/side scatter profiles (panel a). (b) Data points represent median fluorescent intensity values ( individual data points shown, n = 2 independent replicates per condition). Connecting curves are the result of fitting a sigmoidal dose - response model to the data points. Precise estimates for VHH PTHR binding cannot be provided since the […]
(1 picture or pasted object on this page, not shown here)

PTHR1GFP [4] = molecular target: T4, PTHR1GFP; assay: Flow cytometry binding of VHH-Alexafluor647 to HEK293 expressing PTHR1GFP; details: 100 nM VHH-Alexafluor647, on ice
Method: as §5
Supplementary Figure 1. […] HEK293 cell lines in suspension were incubated on ice with 100 nM VHH sortagged with Alexafluor647, pelleted by centrifugation, washed and analyzed. […]
PTHR1GFP. This weak staining is likely related to the inability of VHHGFP to tightly bind the pH-sensitive GFP variant known as pHluorin2 engrafted into the receptor(ref. 19, main text). c) HEK293 cells stably expressing PTHR1-GFP were treated with varied doses of the indicated peptides or conjugates and activation was assessed by measuring luminescence from a cAMP-activated luciferase variant. […]
Supplementary Figure 4. […] Cells were centrifuged, washed, and analyzed by flow cytometry via gating of intact cells (live gate) based on forward scatter/side scatter profiles (panel a). […]

T5 sequence (P49190 25-550): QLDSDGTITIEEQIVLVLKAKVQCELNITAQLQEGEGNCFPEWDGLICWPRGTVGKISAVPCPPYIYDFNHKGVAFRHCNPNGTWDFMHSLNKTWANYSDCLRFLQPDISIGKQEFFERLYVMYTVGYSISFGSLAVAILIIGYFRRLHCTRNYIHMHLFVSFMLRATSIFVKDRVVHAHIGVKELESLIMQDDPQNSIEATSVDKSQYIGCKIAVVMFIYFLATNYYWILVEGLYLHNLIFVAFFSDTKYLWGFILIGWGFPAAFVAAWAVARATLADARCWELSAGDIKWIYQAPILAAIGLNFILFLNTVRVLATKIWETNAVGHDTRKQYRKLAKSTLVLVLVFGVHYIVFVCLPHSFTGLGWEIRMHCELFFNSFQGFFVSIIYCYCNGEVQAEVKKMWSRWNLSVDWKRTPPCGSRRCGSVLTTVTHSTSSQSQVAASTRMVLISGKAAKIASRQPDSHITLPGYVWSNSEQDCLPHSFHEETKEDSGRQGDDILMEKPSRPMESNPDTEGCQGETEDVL

Compound	EC50 (PTHR1_6E) [nM]	EC50 (hPTHR1) [nM]	EC50 (PTHR1YFPΔECD [1]) [nM]	EC50 (PTHR1GFP [2]; peak GloSensor luminescence, mean ± SD, ≥3 independent experiments, read-out: EC50, cAMP induction) [nM]	EC50 (hPTHR2) [nM]	EC50 (PTHR1GFP [2]) [nM]	staining of cells (PTHR1YFPΔECD [3]; 100 nM VHH-Alexafluor647, on ice)	half-maximal staining concentration (PTHR1YFPΔECD [3]; flow cytometry MFI, VHH-Alexafluor647, 1 h on ice) [nM]	staining of cells (PTHR1GFP [4])
CC[C@H](C)[C@H](NC(=O)[C@H](CCC(=O)O)NC(=O)C(C)(C)NC(=O)[C@@H](NC(=O)[C@H](C)N)C(C)C)C(=O)N[C@@H](CCC(N)=O)C(=O)N[C@@H](CC(C)C)C(=O)N[C@@H](CCSC)C(=O)N[C@@H](Cc1c[nH]cn1)C(=O)N[C@@H](CCC(N)=O)C(=O)N[C@@H](CS)C(N)=O [PTH(1-10)] (H-AV[Aib]EIQLMHQC-NH2)	5080	3120	3840	2550 ± 653	–	–	–	–	–
CC[C@H](C)[C@H](NC(=O)[C@H](CCC(=O)O)NC(=O)C(C)(C)NC(=O)[C@@H](NC(=O)[C@H](C)N)C(C)C)C(=O)N[C@@H](CCC(N)=O)C(=O)N[C@@H](CC(C)C)C(=O)N[C@@H](CCSC)C(=O)N[C@@H](Cc1c[nH]cn1)C(=O)N[C@@H](CCC(N)=O)C(=O)N[C@@H](CCCNC(=N)N)C(=O)N[C@@H](C)C(=O)N[C@@H](CCCCN)C(=O)N[C@@H](Cc1c[nH]c2ccccc12)C(=O)N[C@@H](CS)C(N)=O [PTH(1-14)] (H-AV[Aib]EIQLMHQRAKWC-NH2)	3.4	4.3	1.1	–	924 ± 328	2.3 ± 1.2	–	–	–
VHHGFP: nanobody recognizing green or yellow fluorescent proteins (named VHH-enhancer)	–	–	–	–	–	–	stained	< 10	only weakly stained

From PMC7190724, “Improved GPCR ligands from nanobody tethering” (Nature Communications, 2020)
